Measurements published in a melting point compilation (Tetko et al.; mined from patent text by program, amines drawn as free bases though some values may be those of a salt).

| melting point | Compound |
| --- | --- |
| 40 to 41 °C | Cc1cc2c(-c3cccc(C(F)(F)F)c3)nc(COCC(F)(F)F)nc2s1 |
| 137 °C | ClC(Cl)(Cl)c1cnnc2ccccc12 |
| 93 to 95 °C | C#CCOc1cc(-c2ncnc(C(F)F)c2Cl)c(F)cc1Cl |
| 219 to 220 °C | N#CN=C(Nc1cnc(Cl)c(N)c1)Oc1ccccc1 |
| 262 to 264 °C | Cc1nc(NN)c2c(n1)NC(=O)CO2 |
| 74 to 77 °C | O=C[C@H](Cc1c[nH]c2ccccc12)NC(=O)[C@H](Cc1ccccc1)NC(=O)OCc1ccccc1 |
| 65 to 68 °C | COc1cccc2c1OC(CO)CN2C(=O)OC(C)(C)C (centres undefined) |
| 210 °C | O=c1cc(-c2nc[nH]n2)oc2ccccc12 |
| 54 to 56 °C | CC(=O)c1ccc2c(c1)CCS2(=O)=O |
| 154 to 156 °C | CC(=O)c1ccc(CNC(=O)c2cccnc2Oc2ccc3nonc3c2)cc1 |
| 96 to 98 °C | COc1cc(/C=C/C(=O)Nc2ccccc2C(=O)O)ccc1OC1CCCC1 |
| 158 °C | COc1nn(C(=S)Oc2ccccc2)c(=O)n1N |
| 204 to 206 °C | CCCCCc1csc(-c2ccc3c(c2)C=C(C(=O)Nc2ccc(CN(C)C4CCOCC4)cc2)CCS3(=O)=O)c1 |
| 202 °C | CN(C)c1cc2c(cc1C(F)(F)F)NC(=O)CC(c1cccc(-c3ccncc3)c1)=N2 |
| 93 to 95 °C | C=CCOc1cc(C(=O)O)cc(C(=O)N(C)C)c1 |
| 164 to 166 °C | N#Cc1cc(-c2ccnc(Nc3cccc(C(F)(F)F)c3)n2)ccn1 |
| 190 to 191 °C | Cn1cc(C(F)(F)F)c(C(=O)O)c1F |
| 119 to 121 °C | COC(=O)CCCNC(=O)C(CO)NS(=O)(=O)c1ccc(Cl)cc1 (racemic) |
| 105 to 107 °C | CC(C)c1ccc(S(=O)(=O)c2ccccc2)c(C(C)C)c1 |
| 54 to 55 °C | C=Cc1nc(-c2cn(C)c3ccccc23)no1 |

| melting point | Compound |
| --- | --- |
| 87 °C | CCOCC(O)(COCC)C(Cc1ccc2ccccc2c1)[N+](=O)[O-] (centres undefined) |
| 205 °C | Nc1cccc(-n2nnnc2S)c1 |
| 60 to 62 °C | COc1nscc1C#N |
| 96 to 101 °C | O=C(c1ccccc1)C1C=C(Cl)C=CC1(F)NCCO (centres undefined) |
| 193 to 195 °C | CCNc1ncc2ccc(=O)n(-c3ccccc3)c2n1 |
| 141 to 142 °C | CNC(=O)C1=CC(CF)(CF)Oc2cc(Cl)c(Cl)cc21 |
| 201 to 209 °C | CC1(OC(=O)c2ccccc2)C(OC(=O)c2ccccc2)OC(COC(=O)c2ccccc2)C1OC(=O)c1ccccc1 (centres undefined) |
| 68 to 76 °C | COC(=O)Cc1ccc(OCCNC(=O)C2Cc3ccccc3N2S(=O)(=O)c2ccc(-c3cc(C(F)(F)F)ccc3Cl)cc2)c(Cl)c1 (centres undefined) |
| 117 to 119 °C | CC(C#CCOc1cccc(Oc2ccccn2)c1)N(O)C(N)=O (centres undefined) |
| > 270 °C | CCn1c(=O)c2[nH]c(/C=C/c3ccccc3OC)nc2n(CC)c1=O |
| 55 to 57 °C | C[Si](C)(C)ON1C(=O)CCC1=O |
| 96.5 to 108 °C | CCCCCN(CCC12CC3CC(CC(C3)C1)C2)C(=O)NCc1ccncc1 |
| 202 to 204 °C | Cc1cc(-c2c(-c3ccc(S(N)(=O)=O)cc3)cnn(-c3ccc(F)cc3)c2=O)ccc1F |
| 300 °C | Nc1ncnc2c1ncn2Cc1nc2cccc(Cl)c2c(=O)n1-c1ccccc1-c1ccccc1 |
| 103 to 105 °C | C=CCc1c(OCc2ccc3ccccc3n2)ccc2c1c(SC(C)(C)C)c(CC(C)(C)C(=O)O)n2Cc1ccc(Cl)cc1 |
| 113 to 115 °C | O=C(c1cncc(Br)c1)N1CCC(c2ccccc2)=N1 |
| 200 to 202 °C | COC(=O)c1cccc(C(=O)N(C)c2ccc3c(=O)n4c(nc3c2)C(=Cc2ccccc2)CC4)c1 |
| 80 to 82 °C | O=C(NCC(c1ccccc1)c1ccccc1)C1Cc2ccccc2N1S(=O)(=O)c1ccc(-c2ccc(F)cc2)cc1 (centres undefined) |
| 73 to 78 °C | CCCS(=O)(=O)c1c(Cl)cnc(Cl)c1Cl |
